Test results from patent US20260184749A1, “CARBOHYDRATE BINDING POLYPEPTIDE OF SAVALIA SAVAGLIA” (University of Belgrade, priority 2021, published 2026).
Where two headings read alike, the source gives them in different places.

Assays:
[1] = test system: Sava lectin (Savalithsin) from Savalia (Gerardia) savaglia, isoforms SEQ ID NOs: 1, 2, 3 and 4; experiment: Isothermal titration calorimetry (ITC) of carbohydrate binding to Sava lectin; conditions: pH 7.4, 50 mM PBS, 25° C.
Source text: The present inventors have identified, purified and characterised a novel lectin from Savalia (Gerardia) savaglia. The inventors have identified four very closely-related isoforms of this lectin (see Table 1). The sequences of the isoforms are provided as SEQ ID NOs: 1, 2, 3 and 4. SEQ ID NO: 1 is the sequence of the most prevalent (dominant) form expressed in Savalia (Gerardia) savaglia (as determined by mass spectrometry). […] The lectin may be referred to herein as Sava lectin or Savalithsin. This term may be used to refer to a mixture comprising the four isoforms, which may optionally include other isoforms or variants as defined herein. References to recombinantly produced Savalithsin typically refer to the dominant form.
Isothermal titration calorimetry (ITC) experiments were performed with Sava lectin at pH 7.4 in 50 mM phosphate buffered saline (PBS) at 25° C. and in the presence of different D-carbohydrates (mono- and di-saccharides).
Thermodynamic parameters of mannose and methyl mannoside binding were obtained by algorithm for global fitting of the model function to the experimental ITC thermograms based on the iterative non-linear Levenberg-Marquardt χ2 regression procedure. The best agreement between model and experimental data was achieved when two binding sites per protein molecule were assumed.

[2] = test system: Sava lectin (Savalithsin) from Savalia (Gerardia) savaglia, isoforms SEQ ID NOs: 1, 2, 3 and 4; experiment: Turbidimetric activity assay of carbohydrate binding to Sava lectin
Method: Turbidimetric activity assay was performed to confirm ITC results. […] This small binding constant produces small heat effect that cannot be observed by ITC.

[3] = molecular target: Sava lectin (Savalithsin) from Savalia (Gerardia) savaglia, isoforms SEQ ID NOs: 1, 2, 3 and 4; experiment: Microscale thermophoresis (MST) of carbohydrate binding to Sava lectin
Source text: Microscale thermophoresis (MST) experiments confirmed binding of mannose and methyl mannoside. […] Two Km values indicate existence of two binding sites that could be different of allosterically connected.

[4] = test system: Sava lectin (Savalithsin) from Savalia (Gerardia) savaglia, isoforms SEQ ID NOs: 1, 2, 3 and 4; experiment: Differential scanning calorimetry (DSC) of Sava lectin in the presence of carbohydrates; assay type: binding; conditions: for Melting point (Tm) of Sava lectin in the presence of carbohydrate: PBS pH 7.4, Sava lectin alone Tm 79.17° C.
Method: Experiments with differential scanning calorimetry confirmed binding of mannose and methyl mannoside, see discussion of thermal stability below.
Thermal stability was determined by differential scanning calorimetry (DSC). Experiments were performed in PBS at pH 7.4. […] Increased Tm indicates stabilization of protein structure in the presence of bound carbohydrate.

[5] = molecular target: the molecule itself; experiment: MALDI-TOF mass spectrometry of Sava lectin (self-association, oligomers) [top]

`OC[C@H]1OC(O)[C@H](O)[C@@H](O)[C@@H]1O` (stereo partly drawn) [D-glucose] was tested, and the “Binding observed using ITC” value [1] was “did not observed binding”, the “Binding (turbidimetric activity assay)” value [2] was “weak binding” and the “Binding constant compared with D-mannose” value ([2]; relative to D-mannose) was “two orders of magnitude lower than for D-mannose”.

`OC[C@H]1OC(O)[C@@H](O)[C@@H](O)[C@@H]1O` (stereo partly drawn) [D-mannose] was tested, and the “Binding constant (Kb)” value [1] was 2514 M⁻¹, the Kd ([3]; first of two binding events, read-out: Dissociation constant (Kd), first binding event) was 0.0265 mM and the Kd ([3]; second of two binding events, read-out: Dissociation constant (Kd), second binding event) was 11.2 mM. The “Melting point (Tm) of Sava lectin in the presence of carbohydrate” value [4] was 79.63 °C.

For `CC(=O)N[C@H]1C(O)O[C@H](CO)[C@H](O)[C@@H]1O` (stereo partly drawn) [N-acetyl galactosamine], the “Binding observed using ITC” value [1] was “did not observed binding”.

For `CC(=O)N[C@H]1C(O)O[C@H](CO)[C@@H](O)[C@@H]1O` (stereo partly drawn) [N-acetyl glucosamine], the “Binding observed using ITC” value [1] was “did not observed binding”.

With `O=C[C@@H](O)[C@H](O)[C@H](O)CO` [arabinose] the “Binding observed using ITC” value [1] was “did not observed binding”.

For `C[C@@H]1OC(O)[C@@H](O)[C@H](O)[C@@H]1O` (stereo partly drawn) [fucose], the “Binding observed using ITC” value [1] was “did not observed binding”.

`OC[C@H]1OC(O)[C@H](O)[C@@H](O)[C@H]1O` (stereo partly drawn) [galactose] was tested, and the “Binding observed using ITC” value [1] was “did not observed binding” and the “Tm of Sava lectin in the presence of carbohydrate, compared with Sava lectin only” value ([4]; PBS pH 7.4) was “the same as in the experiment with Sava lectin only”.

In the case of `OC[C@H]1O[C@@H](O[C@H]2[C@H](O)[C@@H](O)C(O)O[C@@H]2CO)[C@H](O)[C@@H](O)[C@H]1O` (stereo partly drawn) [lactose], the “Binding observed using ITC” value [1] is reported as “did not observed binding”.

With `OC[C@@H](O)[C@@H](O)[C@H](O)[C@H](O)CO` [mannitol] the “Binding observed using ITC” value [1] was “did not observed binding”.

For `CO[C@H]1O[C@H](CO)[C@@H](O)[C@H](O)[C@@H]1O` [methyl alpha-D-mannoside], the “Binding constant (Kb)” value [1] was 1270 M⁻¹, the Kd ([3]; read-out: Dissociation constant (Kd)) was 13.2 mM and the “Melting point (Tm) of Sava lectin in the presence of carbohydrate” value [4] was 79.55 °C.

In the case of `OC[C@H]1O[C@H](OC[C@H]2O[C@H](O[C@]3(CO)O[C@H](CO)[C@@H](O)[C@@H]3O)[C@H](O)[C@@H](O)[C@@H]2O)[C@H](O)[C@@H](O)[C@H]1O` [raffinose], the “Binding observed using ITC” value [1] is reported as “did not observed binding”.

With `C[C@@H]1OC(O)[C@H](O)[C@H](O)[C@H]1O` (stereo partly drawn) [rhamnose] the “Binding observed using ITC” value [1] was “did not observed binding”.

B1: Sava lectin (isolated and purified from the coral Savalia (Gerardia) savaglia) (other)
chain: SNLRWVATSGGKVPEHAVVGGENFSGEVLYVARVRINSGLTPGKMAPSYRVAHTSYGGKEFYKSDYELITNPGWKSHIEWKYHEGHSKPTNAVLGGTDQRNLYVARFMYGDGHMLSGKVLFDYGKAYLGYNNKEYESTKFYVLVEHPSW
notes: No glycosylation or other post-translational modification was observed; also called Savalithsin
B1: binds [5].
